Reference: patent US9447069B2, “ROR modulators and their uses” (INNOV17 LLC, priority 2012, dated 2016)

Columns and labels:
[1] = system: IL-17F; assay: Real-Time qRT-PCR gene expression in TH17 cells (IL-17F); format: cell-based, human; set-up: key: A: No change in gene expression observed relative to DMSO treated Th17 cells; B: Decreased gene expression observed relative to DMSO treated Th17 cells; C: Increased gene expression observed relative to DMSO treated Th17 cells; conditions: normalized to six reference genes
Method: (§1) Peripheral blood mononuclear cells (PBMCs) were sourced from freshly prepared leukocyte enriched plasma (buffy coat) from healthy volunteers from which PBMCs were isolated by density gradient centrifugation using Ficoll-Paque™ PLUS (GE Healthcare). Naïve CD4+ T cells were isolated using the Naïve CD4+ T cell Isolation Kit II (Miltenyi Biotec) as per manufacturer's instructions. CD4+ T cells were plated at 5×10^4 cells/well in 96 well plates pre-coated with immobilized human (h)-αCD3 antibody (eBioscience) then differentiated to TH17 cells using h-αCD28, h-αIFN-γ, h-αIL-4, h-IL-6, h-IL-23, h-IL-1β, h-TGF-β1 (eBioscience) and maintained in a cell culture incubator at 37° C. with 5% CO2 in TexMACS Medium (Miltenyi Biotec) supplemented with 1% Penicillin/Streptomycin (Lonza) over 5 days.
(§2) RNA was isolated from TH17 cells and cDNA was synthesized using the Verso cDNA kit (Thermo Scientific) as per manufacturer's instructions. IL-17A, IL-17F, IL-21, IL-22, G-CSF, IL-23R and FOXP3 gene expression were determined for compound treated and untreated TH17 cell samples using Solaris qPCR Gene expression assays (Thermo Scientific) with an iCycler iQ Real-Time PCR Detection System (Bio-Rad). Individual gene expression was normalized to a panel of six reference genes (ACTB, TBP, HPRT1, PGK1, TFRC and PPIA) (Thermo Scientific) and analyzed by REST 2009 (Qiagen) in accordance to MIQE guidelines (Bustin et al. (2009) Clin. Chem, 55:611-622). The effects of compounds on TH17 cytokine gene expression are presented as fold change in mRNA levels of compound treated TH17 cells relative to DMSO treated cells in the table below.

[2] = system: IL-17AF; assay: TH17 cytokine inhibition measured by ELISA (IL-17AF); format: cell-based; conditions: 120 h; human TH17 cells, 5 days differentiation, ELISA of supernatants, 0.1% DMSO
Method: as §1
(§3) Human CD4+ T cells were differentiated to TH17 cells as described in the presence or absence of various concentrations of compounds in a final concentration of 0.1% DMSO in TexMACS medium. Supernatants were collected and stored at −20° C. until they were to be assayed for IL-17A, IL-17F, IL-17AF, IL-21 and/or IL-22 levels as determined by Ready-Set-Go ELISA kits (eBioscience) as per manufacturer's instructions. Endpoint absorbance was read at 450 nm and 570 nm according to manufacturer's instructions (eBioscience) using a microplate reader (Perkin Elmer). The percentage of cytokine inhibition was calculated with reference to DMSO treated cells and the IC50s were determined by GraphPad Prism software and presented in the table below.

[3] = system: FOXP3; assay: Real-Time qRT-PCR gene expression in TH17 cells (FOXP3); format: cell-based, human; set-up: key: A: No change in gene expression observed relative to DMSO treated Th17 cells; B: Decreased gene expression observed relative to DMSO treated Th17 cells; C: Increased gene expression observed relative to DMSO treated Th17 cells; conditions: normalized to six reference genes
Method: as §1, §2

[4] = system: IL-21; assay: TH17 cytokine inhibition measured by ELISA (IL-21); format: cell-based; conditions: 120 h; human TH17 cells, 5 days differentiation, ELISA of supernatants, 0.1% DMSO
Method: as §1, §3

| IC50 [2] [µM] | IC50 [4] [µM] | Structure (SMILES) | Fold change in mRNA levels of compound treated TH17 cells relative to DMSO treated cells, IL-17F [1] | Fold change in mRNA levels of compound treated TH17 cells relative to DMSO treated cells, FOXP3 [3] |
| --- | --- | --- | --- | --- |
| < 10 | < 10 | OC(c1ccc(CN2CCCc3cc(-c4cn[nH]c4)ccc32)cc1)(C(F)(F)F)C(F)(F)F [Example 2, 2-(4-((6-(1H-pyrazol-4-yl)-3,4-dihydroquinolin-1(2H)-yl)methyl)phenyl)-1,1,1,3,3,3-hexafluoropropan-2-ol] | B | C |
| < 10 | < 10 | Cc1cc(-c2ccc3c(c2)CCCN3Cc2ccc(C(O)(C(F)(F)F)C(F)(F)F)cc2)[nH]n1 [Example 1, 1,1,1,3,3,3-hexafluoro-2-(4-((6-(3-methyl-1H-pyrazol-5-yl)-3,4-dihydroquinolin-1(2H)-yl)methyl)phenyl)propan-2-ol] | B | C |
| < 10 | < 10 | O=C1CCc2cc(-c3cn[nH]c3)ccc2N1Cc1ccc(C(O)(C(F)(F)F)C(F)(F)F)cc1 [Example 5, 1-(4-(1,1,1,3,3,3-hexafluoro-2-hydroxypropan-2-yl)benzyl)-6-(1H-pyrazol-4-yl)-3,4-dihydroquinolin-2(1H)-one] | A | A |
|  |  | Cc1n[nH]c(-c2ccc3c(c2)CCC(=O)N3Cc2ccc(C(O)(C(F)(F)F)C(F)(F)F)cc2)n1 [Example 6, 1-(4-(1,1,1,3,3,3-hexafluoro-2-hydroxypropan-2-yl)benzyl)-6-(3-methyl-1H-1,2,4-triazol-5-yl)-3,4-dihydroquinolin-2(1H)-one] | B | C |
|  |  | Cc1cc(-c2ccc3c(c2)CCC(=O)N3Cc2ccc(C(O)(C(F)(F)F)C(F)(F)F)cc2)[nH]n1 [Example 4, 1-(4-(1,1,1,3,3,3-hexafluoro-2-hydroxypropan-2-yl)benzyl)-6-(3-methyl-1H-pyrazol-5-yl)-3,4-dihydroquinolin-2(1H)-one] | B | A |
| < 10 | < 10 | Cc1n[nH]c(-c2ccc3c(c2)CCCN3Cc2ccc(C(O)(C(F)(F)F)C(F)(F)F)cc2)n1 [Example 3, 1,1,1,3,3,3-hexafluoro-2-(4-((6-(3-methyl-1H-1,2,4-triazol-5-yl)-3,4-dihydroquinolin-1(2H)-yl)methyl)phenyl)propan-2-ol] | B | A |
